Laboratory results reported in PubChem BioAssay AID200 (DTP/NCI, 2004).
Where “and” joins values, the source holds several entries; their conditions need not be identical. Identical values can stand only once. Inconclusive results and toxic doses are left out. Where a SMILES comes first, the peptide text is derived from it.

Tested on: B6C3F1 mice, B16 melanoma ip, median survival T/C
Experiment: NCI In Vivo Anticancer Drug Screen. Data for tumor model B16 Melanoma (intraperitoneal) in B6C3F1 mice
Conditions: endpoint: median survival time, higher = longer survival
Procedure, shortened: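 Tumor-bearing mice received test compound; a separate group got vehicle only. Survival was then compared, with results reported as treated over control.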

[1] = dose: 50.0 mg/kg/injection, schedule: Q01DX009 (ip), vehicle: Klucel (hydroxypropylcellulose) (HPC)
[2] = dose: 100.0 mg/kg/injection, schedule: Q01DX009 (ip), vehicle: Klucel (hydroxypropylcellulose) (HPC)
[3] = dose: 200.0 mg/kg/injection, schedule: Q01DX009 (ip), vehicle: Klucel (hydroxypropylcellulose) (HPC)
[4] = dose: 25.0 mg/kg/injection, schedule: Q01DX009 (ip), vehicle: saline with Tween-80
[5] = dose: 50.0 mg/kg/injection, schedule: Q01DX009 (ip), vehicle: saline with Tween-80
[6] = dose: 100.0 mg/kg/injection, schedule: Q01DX009 (ip), vehicle: saline with Tween-80
[7] = dose: 200.0 mg/kg/injection, schedule: Q01DX009 (ip), vehicle: saline with Tween-80
[8] = dose: 100.0 mg/kg/injection, schedule: Q01DX009 (ip), vehicle: saline
[9] = dose: 25.0 mg/kg/injection, schedule: Q01DX009 (ip), vehicle: saline
[10] = dose: 50.0 mg/kg/injection, schedule: Q01DX009 (ip), vehicle: saline
[11] = dose: 200.0 mg/kg/injection, schedule: Q01DX009 (ip), vehicle: saline
[12] = dose: 400.0 mg/kg/injection, schedule: Q01DX009 (ip), vehicle: saline
[13] = dose: 1.25 mg/kg/injection, schedule: Q01DX009 (ip), vehicle: saline with Tween-80
[14] = dose: 2.5 mg/kg/injection, schedule: Q01DX009 (ip), vehicle: saline with Tween-80

`Clc1ccc(C[P+](c2ccccc2)(c2ccccc2)c2ccccc2)cc1Cl` was tested, and the T/C (dose: 0.78 mg/kg/injection, schedule: Q01DX009 (ip), vehicle: Klucel (hydroxypropylcellulose) (HPC)) was 99 % of control, the T/C (dose: 1.56 mg/kg/injection, schedule: Q01DX009 (ip), vehicle: Klucel (hydroxypropylcellulose) (HPC)) was 107 % of control and the T/C (dose: 3.12 mg/kg/injection, schedule: Q01DX009 (ip), vehicle: Klucel (hydroxypropylcellulose) (HPC)) was 103 % of control. For the same compound, the T/C (dose: 12.5 mg/kg/injection, schedule: Q01DX009 (ip), vehicle: Klucel (hydroxypropylcellulose) (HPC)) was 88 % of control.

In the case of `CC(C)(C)NC(C1=CC(C)(C)c2ccccc2C1=O)c1ccccc1` (centres undefined), the T/C [1] is reported as 99 % of control, the T/C [2] is reported as 88 % of control and the T/C [3] is reported as 98 % of control.

In the case of `C=COC(=O)C(Cc1ccccc1)NC(=O)OCc1ccccc1` (centres undefined), the T/C [4] is reported as 102 % of control, the T/C [5] is reported as 98 % of control and the T/C [6] is reported as 96 % of control. For the same compound, the T/C [7] was 102 % of control and the T/C (dose: 400.0 mg/kg/injection, schedule: Q01DX009 (ip), vehicle: saline with Tween-80) was 90 % of control.

In the case of `CN(C)CCOc1ccc2c(c1)C/C(=C/c1ncc([N+](=O)[O-])n1C)C2=O`, the T/C (dose: 6.25 mg/kg/injection, schedule: Q01DX009 (ip), vehicle: saline with Tween-80) is reported as 100 % of control, the T/C (dose: 12.5 mg/kg/injection, schedule: Q01DX009 (ip), vehicle: saline with Tween-80) is reported as 104 % of control and the T/C [4] is reported as 100 % of control. The T/C [5] was 111 % of control.

With `CSCCC(NC(=O)c1ccccc1)C(=O)O` (centres undefined) the T/C [8] was 93 % of control.

For `COc1ccc(-c2c3c(cc4cc5c(cc24)OCO5)C(=O)OC3)cc1OC`, the T/C (dose: 6.0 mg/kg/injection, schedule: Q01DX009 (ip), vehicle: Klucel (hydroxypropylcellulose) (HPC)) was 100 % of control, the T/C (dose: 12.0 mg/kg/injection, schedule: Q01DX009 (ip), vehicle: Klucel (hydroxypropylcellulose) (HPC)) was 117 % of control and 105 % of control and the T/C (dose: 24.0 mg/kg/injection, schedule: Q01DX009 (ip), vehicle: Klucel (hydroxypropylcellulose) (HPC)) was 88 % of control and 99 % of control.

For `CC1OC(=O)C(C(C)C)NC(=O)C(C(C)C)OC(=O)C(C(C)C)NC(=O)C(C)OC(=O)C(C(C)C)NC(=O)C(C(C)C)OC(=O)C(C(C)C)NC(=O)C(C)OC(=O)C(C(C)C)NC(=O)C(C(C)C)OC(=O)C(C(C)C)NC1=O` (centres undefined), the T/C (dose: 0.75 mg/kg/injection, schedule: Q01DX009 (oral), vehicle: Klucel (hydroxypropylcellulose) (HPC)) was 104 % of control, the T/C (dose: 1.5 mg/kg/injection, schedule: Q01DX009 (oral), vehicle: Klucel (hydroxypropylcellulose) (HPC)) was 104 % of control and the T/C (dose: 3.0 mg/kg/injection, schedule: Q01DX009 (oral), vehicle: Klucel (hydroxypropylcellulose) (HPC)) was 105 % of control. For the same compound, the T/C (dose: 6.0 mg/kg/injection, schedule: Q01DX009 (oral), vehicle: Klucel (hydroxypropylcellulose) (HPC)) was 100 % of control, the T/C (dose: 12.0 mg/kg/injection, schedule: Q01DX009 (oral), vehicle: Klucel (hydroxypropylcellulose) (HPC)) was 105 % of control and the T/C (dose: 24.0 mg/kg/injection, schedule: Q01DX009 (oral), vehicle: Klucel (hydroxypropylcellulose) (HPC)) was 104 % of control.

With `O=C(O)CCC(NC(=O)OCc1ccccc1)C(=O)NCC(=O)O` (centres undefined) (HELM PEPTIDE1{[O=C(OCc1ccccc1)[*:2]].[O=C(O)CCC(N[*:1])C(=O)[*:2]].G}$$$$V2.0) the T/C [9] was 102 % of control, the T/C [10] was 97 % of control and the T/C [8] was 107 % of control. For the same compound, the T/C [11] was 113 % of control and the T/C [12] was 112 % of control.

`COc1cc(C(=O)c2cocc2C(=O)c2ccc3c(c2)OCO3)cc(OC)c1OC` was tested, and the T/C [1] was 92 % of control and 101 % of control, the T/C [2] was 113 % of control and 91 % of control and the T/C [3] was 112 % of control. For the same compound, the T/C (dose: 400.0 mg/kg/injection, schedule: Q01DX009 (ip), vehicle: Klucel (hydroxypropylcellulose) (HPC)) was 117 % of control.

For `O=C(O)CSC(CC(=O)O)C(=O)O` (centres undefined), the T/C [9] was 94 % of control, the T/C [10] was 89 % of control and the T/C [8] was 94 % of control.

In the case of `CC(=O)NCCSSCCCCS(=O)O`, the T/C [9] is reported as 96 % of control, the T/C [10] is reported as 103 % of control and the T/C [8] is reported as 98 % of control. For the same compound, the T/C [11] was 111 % of control and the T/C [12] was 96 % of control.

`CC1CN1P1(N2CC2C)=NP(N2CC2C)(N2CC2C)=NP(N2CC2C)(N2CC2C)=N1` (centres undefined) was tested, and the T/C (dose: 1.0 mg/kg/injection, schedule: Q01DX009 (ip), vehicle: saline) was 98 % of control, the T/C (dose: 1.0 mg/kg/injection, schedule: Q02DX009 (ip), vehicle: saline) was 96 % of control and the T/C (dose: 2.0 mg/kg/injection, schedule: Q01DX009 (ip), vehicle: saline) was 100 % of control. For the same compound, the T/C (dose: 2.0 mg/kg/injection, schedule: Q02DX009 (ip), vehicle: saline) was 102 % of control, the T/C (dose: 4.0 mg/kg/injection, schedule: Q01DX009 (ip), vehicle: saline) was 106 % of control and the T/C (dose: 4.0 mg/kg/injection, schedule: Q02DX009 (ip), vehicle: saline) was 101 % of control. For the same compound, the T/C (dose: 8.0 mg/kg/injection, schedule: Q01DX009 (ip), vehicle: saline) was 115 % of control, the T/C (dose: 8.0 mg/kg/injection, schedule: Q02DX009 (ip), vehicle: saline) was 105 % of control and the T/C (dose: 16.0 mg/kg/injection, schedule: Q01DX009 (ip), vehicle: saline) was 117 % of control. The T/C (dose: 32.0 mg/kg/injection, schedule: Q02DX009 (ip), vehicle: saline) was 122 % of control, the T/C (dose: 64.0 mg/kg/injection, schedule: Q01DX009 (ip), vehicle: saline) was 118 % of control and the T/C (dose: 64.0 mg/kg/injection, schedule: Q02DX009 (ip), vehicle: saline) was 94 % of control.

In the case of `CS(=O)(=O)CS(=O)(=O)OCCF`, the T/C (dose: 3.12 mg/kg/injection, schedule: Q01DX009 (ip), vehicle: saline) is reported as 107 % of control, the T/C (dose: 5.4 mg/kg/injection, schedule: Q01DX009 (ip), vehicle: saline) is reported as 100 % of control and the T/C (dose: 6.25 mg/kg/injection, schedule: Q01DX009 (ip), vehicle: saline) is reported as 116 % of control. For the same compound, the T/C (dose: 9.0 mg/kg/injection, schedule: Q01DX009 (ip), vehicle: saline) was 110 % of control and 100 % of control, the T/C (dose: 15.0 mg/kg/injection, schedule: Q01DX009 (ip), vehicle: saline) was 113 % of control and 119 % of control and the T/C (dose: 41.67 mg/kg/injection, schedule: Q01DX009 (ip), vehicle: saline) was 121 % of control and 216 % of control.

`NC(=O)Oc1cccc(OC(N)=O)c1` was tested, and the T/C (dose: 12.5 mg/kg/injection, schedule: Q01DX009 (ip), vehicle: distilled water + Tween-80) was 108 % of control, the T/C (dose: 25.0 mg/kg/injection, schedule: Q01DX009 (ip), vehicle: distilled water + Tween-80) was 107 % of control and the T/C (dose: 50.0 mg/kg/injection, schedule: Q01DX009 (ip), vehicle: distilled water + Tween-80) was 99 % of control. The T/C (dose: 100.0 mg/kg/injection, schedule: Q01DX009 (ip), vehicle: distilled water + Tween-80) was 96 % of control, the T/C (dose: 200.0 mg/kg/injection, schedule: Q01DX009 (ip), vehicle: distilled water + Tween-80) was 113 % of control and the T/C (dose: 400.0 mg/kg/injection, schedule: Q01DX009 (ip), vehicle: distilled water + Tween-80) was 105 % of control.

With `N#CCc1c[nH]c2ccc([N+](=O)[O-])cc12` the T/C [5] was 102 % of control, the T/C [6] was 100 % of control and the T/C [7] was 108 % of control.

In the case of `CC(O)CNCCNc1ccc(NCCNCC(C)O)c2c1C(=O)c1c(O)ccc(O)c1C2=O` (centres undefined), the T/C (dose: 1.0 mg/kg/injection, schedule: Q01DX009 (ip), vehicle: distilled water + Tween-80) is reported as 169 % of control, the T/C (dose: 2.0 mg/kg/injection, schedule: Q01DX009 (ip), vehicle: distilled water + Tween-80) is reported as 194 % of control and the T/C (dose: 4.0 mg/kg/injection, schedule: Q01DX009 (ip), vehicle: distilled water + Tween-80) is reported as 221 % of control. For the same compound, the T/C (dose: 8.0 mg/kg/injection, schedule: Q01DX009 (ip), vehicle: distilled water + Tween-80) was 180 % of control.

For `O=C1C=C[C@H](O)[C@@]2(CO)O[C@@H]12`, the T/C (dose: 0.31 mg/kg/injection, schedule: Q01DX009 (ip), vehicle: saline with Tween-80) was 98 % of control, the T/C (dose: 0.62 mg/kg/injection, schedule: Q01DX009 (ip), vehicle: saline with Tween-80) was 100 % of control and the T/C [13] was 102 % of control. For the same compound, the T/C [14] was 109 % of control, the T/C (dose: 5.0 mg/kg/injection, schedule: Q01DX009 (ip), vehicle: saline with Tween-80) was 115 % of control and 93 % of control and the T/C (dose: 10.0 mg/kg/injection, schedule: Q01DX009 (ip), vehicle: saline with Tween-80) was 121 % of control.

With `CCN1/C(=C/C=C/C=C\C=C\c2sc3ccc4ccccc4c3[n+]2CC)Sc2ccc3ccccc3c21` the T/C [13] was 101 % of control, the T/C (dose: 1.25 mg/kg/injection, schedule: Q01DX009 (ip), vehicle: saline) was 124 % of control and the T/C [14] was 94 % of control. For the same compound, the T/C (dose: 2.5 mg/kg/injection, schedule: Q01DX009 (ip), vehicle: saline) was 123 % of control.
